Biological target: Human GPR35 (Homo sapiens, UniProt Q9HC97, S294R)
Test: Alternative Beta-Arrestin Assay (JumpIn 294R Tango U2OS cells, LiveBLAzer-FRET B/G)
Assay type: cell-based
Conditions: Human GPR35 expressing JumpIn 294R Tango U2OS cells, 5 hours treatment
Description: Human GPR35 expressing JumpIn (Thermo Fisher) 294R Tango U2OS cells were plated in 384-well format in clear bottom plates at a cell density of 10,000 cells/well and allowed to grow overnight. The next day, cells were treated with serially diluted test compounds for 5 hours. LiveBLAzer-FRET B/G (CCF4-AM) detection reagents were then added and cells were allowed to incubate for 2 hours before reading plates on a BioTek Cytation 5 plate reader. Zaprinast was used as a positive control for dose-response curves. In order to determine EC50 values, data w ere fit to a four-parameter dose-response curves.

Sequence of Human GPR35 (Q9HC97 whole entry S294R): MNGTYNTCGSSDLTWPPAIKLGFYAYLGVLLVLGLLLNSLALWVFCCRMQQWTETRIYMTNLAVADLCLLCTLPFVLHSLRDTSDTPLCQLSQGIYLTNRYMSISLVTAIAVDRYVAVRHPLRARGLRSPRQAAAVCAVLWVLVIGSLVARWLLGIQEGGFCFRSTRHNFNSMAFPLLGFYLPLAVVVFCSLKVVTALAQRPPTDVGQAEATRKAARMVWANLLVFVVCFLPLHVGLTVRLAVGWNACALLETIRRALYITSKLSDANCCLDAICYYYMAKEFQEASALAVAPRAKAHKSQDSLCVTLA

Row | Structure (SMILES) | EC50
1 | CCOc1cc(-c2ccc(C(=O)O)c(OC)c2)ccc1-c1nc2[nH]nnc2c(=O)[nH]1 [Compound 206, 3′-Ethoxy-3-methoxy-4′-(7-oxo-6,7-dihydro-3H-[1,2,3]triazolo[4,5-d]pyrimidin-5-yl)-[1,1′-biphenyl]-4-carboxylic acid] | ≤ 10 µM
2 | CCOc1cc(-c2cccc([C@H]3C[C@@H]3C(=O)O)c2)ccc1-c1nc2[nH]nnc2c(=O)[nH]1 (racemic) [Compound 277, rac-trans-2-(3′-ethoxy-4′-(7-oxo-6,7-dihydro-3H-[1,2,3]triazolo[4,5-d]pyrimidin-5-yl)-[1,1′-biphenyl]-3-yl)cyclopropane-1-carboxylic acid] | ≤ 10 µM
3 | CCOc1cc(-c2cc(O)cc(O[C@H](CC)C(=O)O)c2)ccc1-c1nc2[nH]nnc2c(=O)[nH]1 (single isomer, unassigned) [Compound 258] | ≤ 10 µM
4 | CCOc1cc(-c2cccc([C@H]3C[C@H]3C(=O)O)c2)ccc1-c1nc2[nH]nnc2c(=O)[nH]1 (single isomer, unassigned) [Compound 307, Cis-2-(3′-ethoxy-4′-(7-oxo-6,7-dihydro-3H-[1,2,3]triazolo[4,5-d]pyrimidin-5-yl)-[1,1′-biphenyl]-3-yl)cyclopropane-1-carboxylic acid] | ≤ 10 µM
5 | CCOc1cc(-c2cc(C)cc(C(=O)O)c2)ccc1-c1nc2[nH]nnc2c(=O)[nH]1 [Compound 185, 3′-ethoxy-5-methyl-4′-(7-oxo-6,7-dihydro-3H-[1,2,3]triazolo[4,5-d]pyrimidin-5-yl)-[1,1′-biphenyl]-3-carboxylic acid] | ≤ 10 µM
6 | CCOc1cc(-c2cccc(CC(CC)C(=O)O)c2)ccc1-c1nc2[nH]nnc2c(=O)[nH]1 (single isomer, unassigned) [Compound 240, 2-((3′-ethoxy-4′-(7-oxo-6,7-dihydro-3H-[1,2,3]triazolo[4,5-d]pyrimidin-5-yl)-[1,1′-biphenyl]-3-yl)methyl)butanoic acid] | ≤ 10 µM

Second part, the compound after the results:

Row | EC50 | Structure (SMILES)
7 | ≤ 10 µM | O=C(O)c1cccc(-c2ccc(-c3nc4[nH]nnc4c(=O)[nH]3)c(OC3CCCC3)c2)c1O [Compound 209, 3′-(Cyclopentyloxy)-2-hydroxy-4′-(7-oxo-6,7-dihydro-3H-[1,2,3]triazolo[4,5-d]pyrimidin-5-yl)-[1,1′-biphenyl]-3-carboxylic acid]
8 | ≤ 10 µM | CCOC(=O)COc1cccc(-c2ccc(-c3nc4[nH]nnc4c(=O)[nH]3)c(OCC)c2)c1 [Compound 120, Ethyl 2-((3′-ethoxy-4′-(7-oxo-6,7-dihydro-3H-[1,2,3]triazolo[4,5-d]pyrimidin-5-yl)-[1,1′-biphenyl]-3-yl)oxy)acetate]
9 | ≤ 10 µM | CCOc1cc(-c2cccc(O[C@H](CC)C(=O)O)c2)ccc1-c1nc2[nH]nnc2c(=O)[nH]1 (single isomer, unassigned) [Compound 253]
10 | ≤ 10 µM | O=C(O)c1ccc(O)c(-c2ccc(-c3nc4[nH]nnc4c(=O)[nH]3)c(OC3CCCC3)c2)c1 [Compound 210, 3′-(Cyclopentyloxy)-6-hydroxy-4′-(7-oxo-6,7-dihydro-3H-[1,2,3]triazolo[4,5-d]pyrimidin-5-yl)-[1,1′-biphenyl]-3-carboxylic acid]
11 | ≤ 10 µM | CCOc1cc(-c2cccc(/C=C(\C)C(=O)O)c2)ccc1-c1nc2[nH]nnc2c(=O)[nH]1 (single isomer, unassigned) [Compound 237, (E)-3-(3′-ethoxy-4′-(7-oxo-6,7-dihydro-3H-[1,2,3]triazolo[4,5-d]pyrimidin-5-yl)-[1,1′-biphenyl]-3-yl)-2-methylacrylic acid]
12 | ≤ 10 µM | CCOc1cc(-c2cc(F)c(F)c(O[C@@H](C)C(=O)O)c2)ccc1-c1nc2[nH]nnc2c(=O)[nH]1 (single isomer, unassigned) [Compound 261]

Same assay, conditions: at 50 μM; Table 2

Row | % inhibition at 50 μM | Structure (SMILES)
13 | 16% inhibition at | CN(C)CCOc1cc(-c2ccc(C(=O)O)cc2)ccc1-c1nc2[nH]nnc2c(=O)[nH]1 [Compound 228, 3′-(2-(Dimethylamino)ethoxy)-4′-(7-oxo-6,7-dihydro-3H-[1,2,3]triazolo[4,5-d]pyrimidin-5-yl)-[1,1′-biphenyl]-4-carboxylic acid]

— patent US11053251B2, “GPR35 modulators” (Prometheus Biosciences, Inc., priority 2019, dated 2021)
